What was measured:
HUVEC [1] = experiment: Cytotoxicity against HUVEC assessed as reduction in cell viability up to 100 uM after 24 hrs by MTT assay; type: cell-based; details: human
HUVEC [2] = experiment: Antiangiogenic activity against HUVEC assessed as reduction in tube formation at 12.5 uM after 24 hrs by matrigel-based light microscopic analysis relative to control; type: functional, Homo sapiens; set-up: scale not given: the % may be the effect or the level left
HUVEC [3] = experiment: Antiangiogenic activity against HUVEC assessed as reduction in tube formation at 100 uM after 24 hrs by matrigel-based light microscopic analysis relative to control; type: functional, Homo sapiens; set-up: scale not given: the % may be the effect or the level left
HUVEC [4] = experiment: Down regulation of VEGF expression in HUVEC at 3.125 uM after 24 hrs by Western blot analysis relative to control; type: functional, Homo sapiens
[5] = molecular target: RAC-alpha serine/threonine-protein kinase (Homo sapiens) (UniProt P31749); experiment: Inhibition of AKT phosphorylation in HUVEC at 3.125 uM after 24 hrs by Western blot analysis relative to control; type: cell-based
HUVEC [6] = experiment: Antiangiogenic activity against HUVEC assessed as reduction in tube formation at 6.25 uM after 24 hrs by matrigel-based light microscopic analysis relative to control; type: functional, Homo sapiens; set-up: scale not given: the % may be the effect or the level left
HUVEC [7] = experiment: Inhibition of ERK phosphorylation in HUVEC at 6.25 uM after 24 hrs by Western blot analysis relative to control; type: cell-based; details: Homo sapiens
[8] = molecular target: RAC-alpha serine/threonine-protein kinase (Homo sapiens) (UniProt P31749); experiment: Inhibition of AKT phosphorylation in HUVEC at 6.25 uM after 24 hrs by Western blot analysis relative to control; type: cell-based
HUVEC [9] = experiment: Inhibition of ERK phosphorylation in HUVEC at 3.125 uM after 24 hrs by Western blot analysis relative to control; type: cell-based; details: Homo sapiens
HUVEC [10] = experiment: Down regulation of VEGF expression in HUVEC at 6.25 uM after 24 hrs by Western blot analysis relative to control; type: functional, Homo sapiens

RAC-alpha serine/threonine-protein kinase (Homo sapiens), sequence (P31749 whole entry): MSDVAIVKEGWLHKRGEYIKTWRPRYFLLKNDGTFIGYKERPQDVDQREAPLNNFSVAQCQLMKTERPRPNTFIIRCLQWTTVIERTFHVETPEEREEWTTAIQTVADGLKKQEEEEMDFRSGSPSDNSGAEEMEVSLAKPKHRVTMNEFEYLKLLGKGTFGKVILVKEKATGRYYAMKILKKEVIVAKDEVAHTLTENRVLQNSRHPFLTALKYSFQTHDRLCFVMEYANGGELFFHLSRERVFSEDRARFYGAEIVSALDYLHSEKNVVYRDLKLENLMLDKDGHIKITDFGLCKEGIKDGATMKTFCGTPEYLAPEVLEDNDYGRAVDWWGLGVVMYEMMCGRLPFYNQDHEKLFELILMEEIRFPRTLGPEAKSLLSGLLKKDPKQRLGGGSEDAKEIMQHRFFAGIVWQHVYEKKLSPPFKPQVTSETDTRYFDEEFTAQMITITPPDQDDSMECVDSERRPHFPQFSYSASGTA

CC(C)(O)c1ccc2c(c1)C(=O)C[C@H]1[C@](C)(C(=O)O)CCC[C@]21C
Activity (HUVEC [1]): Non-Toxic

C=C1CC[C@@H]2[C@](C)(CCC[C@@]2(C)C(=O)O[C@@H]2O[C@H](CO)[C@@H](O)[C@H](O)[C@H]2O)[C@H]1CCC1=CCOC1=O
Activity (HUVEC [1]): Toxic

CC1=CC[C@@H](C(C)(C)O)C[C@@H]1O
Activity (HUVEC [1]): Non-Toxic

C=C(C)[C@@H]1CC[C@](C)(O)[C@@H](O)C1
Activity (HUVEC [1]): Toxic

CC(C)c1ccc2c(c1)CC[C@H]1[C@](C)(C(=O)O)CCC[C@]21C [DEHYDROABIETIC ACID]
Activity (HUVEC [1]): Toxic | Activity (HUVEC [2]): 12.09%

O=C(O)c1ccc(O)cc1 [PARABEN]
Activity (HUVEC [1]): Non-Toxic

CC(C)(O)c1ccc2c(c1)[C@@H](O)C[C@H]1[C@](C)(C(=O)O)CCC[C@]21C
Activity (HUVEC [3]): 8.95% | Activity (HUVEC [1]): Non-Toxic

CC(C)(O)c1ccc2c(c1)[C@H](O)C[C@H]1[C@](C)(C(=O)O)CCC[C@]21C
Activity (HUVEC [1]): Toxic | fold change (FC) (HUVEC [4]): 0.89 | fold change (FC) [5]: 1.1 | Activity (HUVEC [6]): 20.53% | fold change (FC) (HUVEC [7]): 0.82 | fold change (FC) [8]: 0.68 | fold change (FC) (HUVEC [9]): 0.98 | fold change (FC) (HUVEC [10]): 0.69

Source: ChEMBL document CHEMBL4184295, “7α,15-Dihydroxydehydroabietic acid from Pinus koraiensis inhibits the promotion of angiogenesis through downregulation of VEGF, p-Akt and p-ERK in HUVECs” (Bioorg Med Chem Lett, 2018)
